Data on 12 compounds can be found in US6645774B1 (Synaptic Pharmaceutical Corporation, priority 1994, dated 2003).

Like-named read-outs stand apart in the source and are kept apart here. Bounds are passed on as bounds.

Test [1] deals with T1, human Y2 receptor (Homo sapiens, UniProt P49146).
T1 sequence (P49146 1-381): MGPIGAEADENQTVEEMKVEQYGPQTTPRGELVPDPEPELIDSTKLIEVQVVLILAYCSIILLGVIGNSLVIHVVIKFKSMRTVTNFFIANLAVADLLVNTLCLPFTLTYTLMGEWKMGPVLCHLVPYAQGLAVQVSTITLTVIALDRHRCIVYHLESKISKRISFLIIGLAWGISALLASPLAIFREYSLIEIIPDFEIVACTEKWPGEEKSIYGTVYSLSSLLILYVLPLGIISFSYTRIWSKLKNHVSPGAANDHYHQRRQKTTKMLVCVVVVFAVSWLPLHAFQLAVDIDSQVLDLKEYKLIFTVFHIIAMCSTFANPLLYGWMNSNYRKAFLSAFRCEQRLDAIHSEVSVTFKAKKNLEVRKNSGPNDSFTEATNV
In words: ^125I-PYY binding of compounds to human Y2 receptor, stably transfected cells.
Description: (§1) To prepare membranes from baculovirus infected cells, 2×10^7 Sf21 cells were grown in 150 mm tissue culture dishes and infected with a high-titer stock of hY5BB3.

The target of test [2] is T2, human Y4 receptor (Homo sapiens, UniProt P50391). In words: ^125I-PYY binding of compounds to human Y4 receptor, stably transfected cells. The following applies: read-out: Binding Affinity (Ki (nM) vs. ^125I-PYY) Human Receptor Y4; stably transfected cells.
T2 sequence (P50391 whole entry): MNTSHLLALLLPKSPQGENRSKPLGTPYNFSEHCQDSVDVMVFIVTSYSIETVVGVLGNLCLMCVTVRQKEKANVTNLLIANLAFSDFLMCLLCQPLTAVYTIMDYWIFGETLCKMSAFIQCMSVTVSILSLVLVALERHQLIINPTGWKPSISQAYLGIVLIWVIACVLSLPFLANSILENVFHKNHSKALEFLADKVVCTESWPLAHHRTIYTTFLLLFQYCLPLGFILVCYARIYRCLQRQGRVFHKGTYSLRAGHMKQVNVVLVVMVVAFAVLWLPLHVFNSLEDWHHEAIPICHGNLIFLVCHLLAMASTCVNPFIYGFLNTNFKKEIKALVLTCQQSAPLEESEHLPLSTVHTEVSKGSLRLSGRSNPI
Description: as §1
Another test addresses human Y1 receptor (Homo sapiens, UniProt P25929). The experiment in a line: ^125I-PYY binding of compounds to human Y1 receptor, stably transfected cells. The conditions noted are these: read-out: Binding Affinity (Ki (nM) vs. ^125I-PYY) Human Receptor Y1; stably transfected 293 or LM(tk-) cells; compound 1 also COS-7 data.
The target of test [3] is T1, human Y2 receptor. In words: ^125I-PYY binding to cloned human Y2 receptor (COS-7 membranes). The conditions noted are these: cloned human Y-type receptors; expression system not given.
In test [4] the target is T3, rat Y2 receptor (Rattus norvegicus, UniProt Q9ERC0). The experiment in a line: ^125I-PYY binding to cloned rat Y2 receptor (COS-7 membranes). The following applies: cloned rat Y-type receptors; expression system not given.
T3 sequence (Q9ERC0 1-381): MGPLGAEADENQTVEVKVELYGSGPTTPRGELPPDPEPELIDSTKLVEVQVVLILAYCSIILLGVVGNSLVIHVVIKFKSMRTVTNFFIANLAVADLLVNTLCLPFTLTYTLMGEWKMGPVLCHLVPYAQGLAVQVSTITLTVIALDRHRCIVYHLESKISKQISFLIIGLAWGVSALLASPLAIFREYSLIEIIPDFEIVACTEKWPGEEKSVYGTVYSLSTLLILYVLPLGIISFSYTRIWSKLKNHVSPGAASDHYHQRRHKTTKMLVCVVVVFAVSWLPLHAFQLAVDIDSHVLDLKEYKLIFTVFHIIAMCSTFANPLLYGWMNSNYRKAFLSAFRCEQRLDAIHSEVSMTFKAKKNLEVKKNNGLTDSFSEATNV
A further test concerns the target canine Y5 receptor. In words: Porcine ^125I-PYY binding to canine Y5 receptor (COS-7 membranes). The following applies: COS-7 transient, Table 20 prints no unit, nM.
The target of test [5] is T2, human Y4 receptor. In words: ^125I-PYY binding to cloned human Y4 receptor (COS-7 membranes). The following applies: cloned human Y-type receptors; expression system not given.
Test [6] addresses T3, rat Y2 receptor. In words: Antagonism of NPY- or PP-induced activation of rat Y2 receptors. Also on record: expressed in transfected cells. The following applies: rat Y2, concentrations up to 1 μM. Type of test: cell-based.
For another test, the target named is rat Y4 receptor (Rattus norvegicus, UniProt Q63447). The experiment in a line: ^125I-PYY binding to cloned rat Y4 receptor (COS-7 membranes). The following applies: cloned rat Y-type receptors; expression system not given.
Sequence of rat Y4 receptor (Q63447 whole entry): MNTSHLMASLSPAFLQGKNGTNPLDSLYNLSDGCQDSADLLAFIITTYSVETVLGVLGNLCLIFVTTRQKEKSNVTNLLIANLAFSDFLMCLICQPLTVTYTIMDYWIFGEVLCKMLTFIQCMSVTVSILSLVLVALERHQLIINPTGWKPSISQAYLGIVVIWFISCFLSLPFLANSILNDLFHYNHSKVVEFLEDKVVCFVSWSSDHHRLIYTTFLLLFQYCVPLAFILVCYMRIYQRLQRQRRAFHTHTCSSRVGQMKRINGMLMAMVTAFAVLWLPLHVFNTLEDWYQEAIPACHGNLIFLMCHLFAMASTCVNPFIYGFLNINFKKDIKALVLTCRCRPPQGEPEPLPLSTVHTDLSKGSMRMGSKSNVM
The next test has as its target human 5HT2 receptor (Homo sapiens, UniProt P28223). The experiment in a line: Cross-reactivity binding, human 5HT2 receptor.
The target in test [7] is human dopamine D3 receptor (Homo sapiens, UniProt P35462). In words: Cross-reactivity binding, human dopamine D3 receptor.
Sequence of human dopamine D3 receptor (P35462 whole entry): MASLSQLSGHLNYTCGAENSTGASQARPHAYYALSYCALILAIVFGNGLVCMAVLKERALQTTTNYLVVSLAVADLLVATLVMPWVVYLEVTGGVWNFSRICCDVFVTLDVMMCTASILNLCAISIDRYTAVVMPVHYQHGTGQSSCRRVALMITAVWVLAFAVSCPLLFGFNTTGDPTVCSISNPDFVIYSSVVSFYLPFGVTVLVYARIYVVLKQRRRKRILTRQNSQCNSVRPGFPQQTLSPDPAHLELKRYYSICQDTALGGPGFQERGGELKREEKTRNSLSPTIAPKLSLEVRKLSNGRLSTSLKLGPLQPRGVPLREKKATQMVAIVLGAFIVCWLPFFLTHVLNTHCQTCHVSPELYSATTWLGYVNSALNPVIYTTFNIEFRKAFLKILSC
For the next test, the target named is T4, human 5HT1F receptor (Homo sapiens, UniProt P30939).
T4 sequence (P30939 1-366): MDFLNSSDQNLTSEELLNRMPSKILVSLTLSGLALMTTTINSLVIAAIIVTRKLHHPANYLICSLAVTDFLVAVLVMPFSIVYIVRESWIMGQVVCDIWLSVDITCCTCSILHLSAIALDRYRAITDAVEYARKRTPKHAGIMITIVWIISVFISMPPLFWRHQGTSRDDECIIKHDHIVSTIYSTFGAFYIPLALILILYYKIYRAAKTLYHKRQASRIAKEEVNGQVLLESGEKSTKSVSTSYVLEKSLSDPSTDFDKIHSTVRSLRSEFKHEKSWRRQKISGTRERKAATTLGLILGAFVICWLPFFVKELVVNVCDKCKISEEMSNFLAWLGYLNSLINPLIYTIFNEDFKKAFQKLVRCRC
In words: Cross-reactivity binding, human 5HT1F receptor. The following applies: for Receptor (pKi) 5HT1F: cloned human receptor.

Another test has as its target 5HT1a (Homo sapiens, UniProt P08908). The experiment in a line: Cross-reactivity binding, human 5HT1a receptor.
A further test concerns the target 5HT1D2 (Homo sapiens, UniProt P28222). In words: Cross-reactivity binding, human 5HT1D2 receptor. The conditions noted are these: cloned human receptor.
Another test has as its target human 5HT1E receptor (Homo sapiens, UniProt P28566). In words: Cross-reactivity binding, human 5HT1E receptor. The following applies: for Receptor (pKi) 5HT1E: cloned human receptor.
The target of a further test is human 5HT1Dα receptor (Homo sapiens, UniProt P28221). In words: Cross-reactivity binding, human 5HT1Dα receptor. The conditions noted are these: cloned human receptor.
Sequence of human 5HT1Dα receptor (P28221 whole entry): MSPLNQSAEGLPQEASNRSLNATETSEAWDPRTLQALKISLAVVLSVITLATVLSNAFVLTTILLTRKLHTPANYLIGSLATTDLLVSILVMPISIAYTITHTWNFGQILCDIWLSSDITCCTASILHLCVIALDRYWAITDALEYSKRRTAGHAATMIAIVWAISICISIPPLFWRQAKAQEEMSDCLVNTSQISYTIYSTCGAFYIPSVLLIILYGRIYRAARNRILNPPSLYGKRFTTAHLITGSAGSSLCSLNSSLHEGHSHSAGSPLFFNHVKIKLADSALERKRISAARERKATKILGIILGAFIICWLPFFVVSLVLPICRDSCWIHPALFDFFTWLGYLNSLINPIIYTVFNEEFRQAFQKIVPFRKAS
Test [8] concerns the target human α2C adrenergic receptor (Homo sapiens, UniProt P18825). In words: Cross-reactivity binding, cloned human α2c receptor.
A further test relates to satiated rats. In words: NPY-induced food intake in satiated rats. Type of test: in vivo, rat. The following applies: 300 pmole i.c.v., p<0.05 Student-Newman-Keuls. On the procedure: For these determinations food intake may be measured in normal satiated rats after intracerebroventricular application (i.c.v.) of NPY in the presence or absence of the test compound. Male Sprague Dawley rats (Ciba-Geigy AG, Sisseln, Switzerland) weighing between 180 g and 220 g are used for all experiments. The rats are individually housed in stainless steel cages and maintained on an 11:13 h light-dark cycle (lights off at 18:00 h) at a controlled temperature of 21-23° C. at all times. Water and food (NAFAG lab chow pellets NAFAG, Gossau, Switzerland) are available ad libidum.
Rats under pentobarbital anesthesia are stereotaxically implanted with a stainless steel guide cannula targeted at the right lateral ventricle. Stereotaxic coordinates, with the incisor bar set −2.0 mm below interaural line, are: −0.8 mm anterior and +1.3 mm lateral to bregma. The guide cannula is placed on the dura. […]
Food intake may be measured by placing preweighed pellets into the cages at the time of NPY injection. […] The food intake of animals treated with test compound may be calculated as a percentage of the food intake of control animals i.e., animals treated with vehicle. Alternatively, food intake for each group of animals subjected to a particular experimental condition may be expressed as the mean±S.E.M. Statistical analysis is performed by analysis of variance using the Student-Newman-Keuls test.

Sequence of human 5HT1E receptor (P28566 whole entry): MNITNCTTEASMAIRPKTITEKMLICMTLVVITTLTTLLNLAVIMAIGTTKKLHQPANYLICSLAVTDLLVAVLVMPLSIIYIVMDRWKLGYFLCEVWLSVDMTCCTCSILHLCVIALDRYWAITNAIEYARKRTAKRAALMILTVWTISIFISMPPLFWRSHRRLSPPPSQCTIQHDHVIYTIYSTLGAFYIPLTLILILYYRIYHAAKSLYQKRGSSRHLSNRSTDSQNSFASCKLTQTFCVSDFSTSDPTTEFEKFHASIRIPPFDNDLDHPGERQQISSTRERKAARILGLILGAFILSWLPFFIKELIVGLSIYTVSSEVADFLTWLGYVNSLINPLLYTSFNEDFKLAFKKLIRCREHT
Sequence of 5HT1D2 (P28222 whole entry): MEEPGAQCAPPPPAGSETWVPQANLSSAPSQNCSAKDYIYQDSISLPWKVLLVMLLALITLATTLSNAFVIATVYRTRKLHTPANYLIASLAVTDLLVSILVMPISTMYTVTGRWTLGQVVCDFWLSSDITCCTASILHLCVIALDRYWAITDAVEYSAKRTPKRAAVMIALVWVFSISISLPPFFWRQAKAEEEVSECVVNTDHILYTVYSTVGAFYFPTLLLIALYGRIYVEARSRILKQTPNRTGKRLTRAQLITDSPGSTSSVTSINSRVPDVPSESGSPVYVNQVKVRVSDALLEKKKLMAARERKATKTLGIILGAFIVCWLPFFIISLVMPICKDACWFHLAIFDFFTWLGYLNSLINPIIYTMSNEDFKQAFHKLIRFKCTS
Sequence of 5HT1a (P08908 whole entry): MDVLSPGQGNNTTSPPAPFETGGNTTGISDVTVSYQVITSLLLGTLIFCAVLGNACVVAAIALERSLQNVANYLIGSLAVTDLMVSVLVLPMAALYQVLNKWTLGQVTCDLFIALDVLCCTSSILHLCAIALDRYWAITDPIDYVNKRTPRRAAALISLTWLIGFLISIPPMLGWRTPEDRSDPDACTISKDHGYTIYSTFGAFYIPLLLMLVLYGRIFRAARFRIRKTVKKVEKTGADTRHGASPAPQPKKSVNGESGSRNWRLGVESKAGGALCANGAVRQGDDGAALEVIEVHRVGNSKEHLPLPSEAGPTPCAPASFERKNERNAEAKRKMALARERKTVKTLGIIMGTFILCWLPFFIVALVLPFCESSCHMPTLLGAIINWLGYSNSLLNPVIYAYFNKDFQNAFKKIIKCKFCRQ
Sequence of human 5HT2 receptor (P28223 whole entry): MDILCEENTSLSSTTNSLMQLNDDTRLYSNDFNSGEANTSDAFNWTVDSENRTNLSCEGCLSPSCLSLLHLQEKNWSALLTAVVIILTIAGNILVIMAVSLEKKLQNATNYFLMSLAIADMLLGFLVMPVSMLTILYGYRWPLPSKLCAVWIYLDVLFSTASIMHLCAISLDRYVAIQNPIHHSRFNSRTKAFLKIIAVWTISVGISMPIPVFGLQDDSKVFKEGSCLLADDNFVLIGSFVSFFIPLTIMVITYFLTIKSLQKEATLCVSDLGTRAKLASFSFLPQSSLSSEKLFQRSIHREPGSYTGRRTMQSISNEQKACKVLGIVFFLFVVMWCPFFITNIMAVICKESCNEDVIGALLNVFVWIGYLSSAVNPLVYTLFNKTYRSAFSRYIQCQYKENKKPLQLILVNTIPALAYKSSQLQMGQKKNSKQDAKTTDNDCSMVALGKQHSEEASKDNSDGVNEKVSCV
Sequence of human Y1 receptor (P25929 whole entry): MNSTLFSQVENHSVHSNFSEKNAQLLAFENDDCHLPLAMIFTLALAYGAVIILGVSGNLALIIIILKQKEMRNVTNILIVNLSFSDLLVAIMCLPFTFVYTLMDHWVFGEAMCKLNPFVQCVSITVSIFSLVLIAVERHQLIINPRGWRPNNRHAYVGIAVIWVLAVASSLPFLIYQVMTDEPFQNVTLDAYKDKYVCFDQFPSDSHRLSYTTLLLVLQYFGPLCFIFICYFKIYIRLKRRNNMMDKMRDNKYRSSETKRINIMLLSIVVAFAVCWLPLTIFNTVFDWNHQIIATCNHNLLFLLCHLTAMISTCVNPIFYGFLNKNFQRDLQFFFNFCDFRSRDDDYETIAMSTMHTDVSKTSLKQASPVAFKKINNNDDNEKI
Sequence of human α2C adrenergic receptor (P18825 whole entry): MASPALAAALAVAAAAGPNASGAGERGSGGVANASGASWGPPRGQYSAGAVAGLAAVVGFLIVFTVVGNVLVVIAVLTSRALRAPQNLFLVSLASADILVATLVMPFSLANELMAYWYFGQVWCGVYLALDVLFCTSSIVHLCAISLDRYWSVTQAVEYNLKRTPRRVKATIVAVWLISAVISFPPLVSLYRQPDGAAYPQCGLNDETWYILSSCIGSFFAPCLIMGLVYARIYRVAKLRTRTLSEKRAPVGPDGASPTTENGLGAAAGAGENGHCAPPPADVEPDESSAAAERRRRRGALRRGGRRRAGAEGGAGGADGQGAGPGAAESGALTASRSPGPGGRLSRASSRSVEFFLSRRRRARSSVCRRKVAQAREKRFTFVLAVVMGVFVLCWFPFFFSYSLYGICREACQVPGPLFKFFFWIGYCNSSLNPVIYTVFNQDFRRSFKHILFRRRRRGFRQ
Description for human Y1 receptor: as §1

For the compound “2-(Naphthalen-1-yl)-3-phenylpropane-1,2-diamine [Compound 28]”, the Ki on human Y2 receptor [1] (read-out: Binding Affinity (Ki (nM) vs. ^125I-PYY) Human Receptor Y2, stably transfected 293 or LM(tk-) cells, compound 1 also COS-7 data) is > 75000 nM; on human Y4 receptor [2], > 100000 nM; on human Y1 receptor it was > 100000 nM.

In the case of `NC(N)=NCCC[C@@H](NC(=O)C(c1ccccc1)c1ccccc1)C(=O)NCc1ccc(O)cc1` [BIBP 3226], the Ki on human Y2 receptor [3] turned out to be 6.9 µM; on rat Y2 receptor [4] it was 66 µM; on canine Y5 receptor it was 17000 nM; at human Y4 receptor [5], 8 µM; on rat Y4 receptor, 0.42 µM. The “antagonism of NPY- or PP-induced activation” value on rat Y2 receptor [6] is given as “no evidence for antagonism”.

On to `Cl.c1ccc(Nc2nc(Nc3ccccc3)c3ccccc3n2)cc1` [Compound 1, 2,4-Diphenylamino-quinazoline Hydrochloride], for which the Ki at human 5HT2 receptor was 0.457 µM; in test [7], 2.04 µM; on 5HT1a, 30.9 µM. The “Receptor (pKi) 5HT1F” value on human 5HT1F receptor was determined as 5.30. The “Receptor (pKi) 5HT1D2” value on 5HT1D2 was found to be 5.30. Besides, at human 5HT1E receptor, the “Receptor (pKi) 5HT1E” value amounted to 5.30.

Consider `Cl.Nc1nc(NC[C@H]2CC[C@H](CNS(=O)(=O)c3cccc4ccccc34)CC2)nc2ccccc12` [Compound 5, trans-Naphthalene-1-sulfonic Acid {4-[(4-amino-quinazolin-2-ylamino)-methyl]-cyclohexylmethyl}-amide Hydrochloride], for which the Ki at human 5HT2 receptor (cloned human receptor, read-out: Receptor (pKi) 5HT2 (converted)) is 0.389 µM; in [7] (cloned human receptor, read-out: Receptor (pKi) D3 (converted)) it was 0.0575 µM; on 5HT1a (cloned human receptor, read-out: Receptor (pKi) 5HT1a (converted)), 0.468 µM. At human 5HT1F receptor, the “Receptor (pKi) 5HT1F” value is 5.30. For the same compound, the “Receptor (pKi) 5HT1E” value at human 5HT1E receptor is recorded as 5.30.

Regarding `Cl.Cl.c1ccc(Nc2nc(Nc3ccc(N4CCCCC4)cc3)nc3ccccc23)cc1` [Compound 6, 2-[4-(Piperidin-1-yl)-phenylamino]-4-phenylamino-quinazoline Dihydrochloride], the “Receptor (pKi) 5HT1Dα” value at human 5HT1Dα receptor was found to be 5.30. Moreover, on human 5HT1F receptor, the “Receptor (pKi) 5HT1F” value was 5.30. Moreover, on 5HT1D2, the “Receptor (pKi) 5HT1D2” value amounted to 5.30. The same compound gave a Ki in [8] of 0.437 µM. Further, the “Receptor (pKi) 5HT1E” value at human 5HT1E receptor is 5.30.

On to `COc1ccc(Nc2nc(Nc3ccccc3)c3cccc(OC)c3n2)cc1.Cl` [Compound 9, 8-Methoxy-2-(4-methoxy-phenylamino)-4-phenylamino-quinazoline Hydrochloride], for which, at human 5HT1Dα receptor, the “Receptor (pKi) 5HT1Dα” value is 5.30. For the same compound, the “Receptor (pKi) 5HT1F” value at human 5HT1F receptor turned out to be 5.30. Also, the “Receptor (pKi) 5HT1D2” value at 5HT1D2 worked out at 5.30. Also, the Ki on human Y2 receptor [1] was > 100000 nM. On human 5HT1E receptor, the “Receptor (pKi) 5HT1E” value turned out to be 5.30.

Take `CNS(=O)(=O)Cc1ccc(Nc2nc(Nc3ccccc3)c3cc(OC)ccc3n2)cc1.Cl` [Compound 10, N-Methyl-[4-(6-methoxy-4-phenylamino-quinazolin-2-ylamino)-phenyl]-methanesulfonamide Hydrochloride]: at human 5HT1Dα receptor, the “Receptor (pKi) 5HT1Dα” value came out at 5.30. Besides, the “Receptor (pKi) 5HT1F” value on human 5HT1F receptor was determined as 5.30. Moreover, the “Receptor (pKi) 5HT1D2” value on 5HT1D2 amounted to 5.30. Besides, the Ki on human Y2 receptor [1] is > 100000 nM. For the same compound, the “Receptor (pKi) 5HT1E” value on human 5HT1E receptor amounted to 5.30.

On to `CNS(=O)(=O)Cc1ccc(Nc2nc(Nc3ccccc3)c3ccccc3n2)cc1.Cl` [Compound 11, N-Methyl-[4-(4-phenylamino-quinazolin-2-ylamino)-phenyl]-methanesulfonamide Hydrochloride], for which the “Receptor (pKi) 5HT1Dα” value on human 5HT1Dα receptor is reported as 5.30. The “Receptor (pKi) 5HT1F” value on human 5HT1F receptor was found to be 5.30. Moreover, the “Receptor (pKi) 5HT1D2” value on 5HT1D2 is given as 5.30. The Ki on human Y2 receptor [1] is > 100000 nM. In addition, the “Receptor (pKi) 5HT1E” value at human 5HT1E receptor turned out to be 5.30.

`Cl.O=S(=O)(NC[C@H]1CC[C@H](CNCC2CCc3ccccc3C2)CC1)c1cccc2ccccc12` (stereo partly drawn) [Compound 19]: the “Receptor (pKi) 5HT1F” value on human 5HT1F receptor was 5.30. Further, the “Receptor (pKi) 5HT1D2” value at 5HT1D2 is given as 5.30. In addition, the “Receptor (pKi) 5HT1E” value on human 5HT1E receptor is given as 5.30.

Take `Cl.O=[N+]([O-])c1ccccc1S(=O)(=O)NC[C@H]1CC[C@H](CNCC2CCc3ccccc3C2)CC1` (stereo partly drawn) [Compound 20]: the “Receptor (pKi) 5HT1F” value at human 5HT1F receptor amounted to 5.30. For the same compound, the “Receptor (pKi) 5HT1E” value on human 5HT1E receptor is given as 5.30.

As for `O=S(=O)(NC[C@H]1CC[C@H](CNC(CO)Cc2ccc(Cl)cc2)CC1)c1cccc2ccccc12` (stereo partly drawn) [Compound 25, Naphthalene-1-sulfonic Acid trans-(4-{[2-(4-Chlorophenyl)-1-hydroxymethyl-ethylamino]-methyl}cyclohexylmethyl)-amide], the Ki on human 5HT1F receptor and on human 5HT1E receptor was 5.01 µM throughout.

Take “NPY: neuropeptide Y; porcine NPY, 300 pmole i.c.v., in the feeding studies”: the “effect on food intake vs vehicles” value in the test on satiated rats is reported as “significantly induce food intake”.
